According to the NIST ThermoML archive (doi:10.1016/j.jct.2012.12.026):
Numbers after ± are expanded uncertainties.

Conditions: Liquid, Closed cell (Static) method

SMILES: FC(F)C(F)F [1,1,2,2-tetrafluoroethane]
- vapor or sublimation pressure (278.15 K): 271.3 ± 1.3 kPa
- vapor or sublimation pressure (288.15 K): 382.9 ± 1.5 kPa

SMILES: F/C=C/C(F)(F)F [trans-1,3,3,3-tetrafluoropropene]
- vapor or sublimation pressure (258.15 K): 120.2 ± 1 kPa
- vapor or sublimation pressure (268.15 K): 179.3 ± 1 kPa
- vapor or sublimation pressure (278.15 K): 259.2 ± 1.1 kPa
- vapor or sublimation pressure (288.15 K): 364.2 ± 1.1 kPa
